From patent publication US20040267028A1, “Preparation and use of pyrrole derivatives for treating obesity” (priority 2001, published 2004)
Counter-ions that a name gives are not always drawn.

System: lean overnight fasted rats
Assay: Fasted-refed acute feeding assay (reduction of food intake)
Format: in vivo, rat
Settings: 10 mg/kg p.o., single dose, measured at time points from 30 to 240 minutes
Text: Evaluation of Compound's Efficacy on the Reduction of Food Intake (Suppression of Appetite) in Lean Overnight Fasted Rats
Fasted-Refed Acute Feeding Assay
The purpose of this protocol is to determine the effect of a single dose of an unknown compound on food consumption of lean overnight fasted rats. The fasted-refed rat model is frequently used in the field of obesity to identify compounds with potential for anorectic effects. This animal model has been successfully used in the identification and characterization of the efficacy profile of compounds that are or have been used in the management of body weight in obese humans (see, e.g., Balvet et al., Gen. Pharmacol. 13:293-297, 1982; Grignaschi et al., Br. J. Pharmacol. 127:1190-1194, 1999; McTavish and Heel, Drug 43:713-733, 1992; Rowland et al., Life Sci. 36:2295-2300, 1985). […]
The vehicle test: The rats are grouped based upon their performance on a vehicle test. […] After 1 hour, the spillage is returned to the food jar and the amount of food consumed is determined. […]
The efficacy test: The rats are fasted overnight during the dark phase (total of approx. 16-18 hr). […] Food intake is recorded 30, 60, 90, 180, and 240 minutes post-food return. […] The amount of food consumed is determined for each time point. Difference between treatment group is determined using appropriate statistical analysis.

Row | SMILES | food consumption was reduced (relative to the food consumption observed for the vehicle control group)
1 | Cc1c(C(=O)NN2CCCCC2)cc(-c2ccc(Cl)cc2)n1-c1ccccc1Cl [Entry 23, 1-(2-chlorophenyl)-5-(4-chlorophenyl)-2-methyl-N-(1-piperidinyl)-1H-pyrrole-3-carboxamide hydrochloride] | up to 25%
2 | COc1ccc(-c2c(C)c(C(=O)NNc3ccc(C(F)(F)F)cc3)c(C)n2-c2ccccc2Cl)cc1.Cl [Entry 43, 1-(2-chlorophenyl)-5-(4-methoxyphenyl)-2,4-dimethyl-N′-[4-(trifluoromethyl)phenyl]-1H-pyrrole-3-carbohydrazide hydrochloride] | up to 35%
